Assay results from ChEMBL document CHEMBL5634130, “Exploring the structural-activity relationship of hexahydropyrazino[1,2-d]pyrido[3,2-b][1,4]oxazine derivatives as potent and orally-bioavailable PARP7 inhibitors” (Eur J Med Chem, 2023).
In brackets after ≈: the same amount, converted by molar mass.

Legend:
[1] = Clearance in fasted ICR mouse at 2 mg/kg, iv measured for 24 hrs by LC-MS analysis; format: ADME, organism-based; settings: in vivo
[2] = Half life in fasted ICR mouse at 2 mg/kg, iv measured for 24 hrs by LC-MS analysis; format: ADME, organism-based; settings: in vivo
[3] = AUC in fasted ICR mouse at 2 mg/kg, iv measured for 24 hrs by LC-MS analysis; format: ADME, organism-based; settings: in vivo
[4] = Volume of distribution at steady state in fasted ICR mouse at 2 mg/kg, iv measured for 24 hrs by LC-MS analysis; format: ADME, organism-based; settings: in vivo, read-out: Vdss
[5] = Tmax in fasted ICR mouse at 10 mg/kg, po measured for 24 hrs by LC-MS analysis; format: ADME, organism-based; settings: in vivo
[6] = Half life in fasted ICR mouse at 10 mg/kg, po measured for 24 hrs by LC-MS analysis; format: ADME, organism-based; settings: in vivo
[7] = Cmax in fasted ICR mouse at 10 mg/kg, po measured for 24 hrs by LC-MS analysis; format: ADME, organism-based; settings: in vivo
[8] = AUC in fasted ICR mouse at 10 mg/kg, po measured for 24 hrs by LC-MS analysis; format: ADME, organism-based; settings: in vivo
[9] = Oral bioavailability in fasted ICR mouse at 10 mg/kg measured for 24 hrs by LC-MS analysis; format: ADME, organism-based; settings: in vivo
NCI-H1373 = test: Antitumor activity against human NCI-H1373 cells xenografted in […] SCID mouse model assessed as tumor growth inhibition at 30 mg/kg, po administered everyday measured after 21 days relative to control; format: functional; settings: NCI-H1373, 504 h, time 21 day, read-out: TGI
[10] = Toxicity in […] SCID mouse model xenografted with human NCI-H1373 cells assessed as animal death at 30 mg/kg, po measured for 21 days; format: organism-based; settings: in vivo, 504 h, time 21 day
[11] = Toxicity in […] SCID mouse model xenografted with human NCI-H1373 cells assessed as body weight loss at 30 mg/kg, po measured for 21 days; format: organism-based; settings: in vivo, 504 h, time 21 day
[12] = Half life in fasted Beagle dog at 2 mg/kg, iv measured for 24 hrs by LC-MS analysis; format: ADME, organism-based, Canis lupus familiaris; settings: in vivo
[13] = AUC in fasted Beagle dog at 2 mg/kg, iv measured for 24 hrs by LC-MS analysis; format: ADME, organism-based, Canis lupus familiaris; settings: in vivo, iv, 2 mg/kg, 24 h
[14] = Volume of distribution at steady state in fasted Beagle dog at 2 mg/kg, iv measured for 24 hrs by LC-MS analysis; format: ADME, organism-based, Canis lupus familiaris; settings: in vivo, read-out: Vdss
[15] = Tmax in fasted Beagle dog at 10 mg/kg, po measured for 24 hrs by LC-MS analysis; format: ADME, organism-based, Canis lupus familiaris; settings: in vivo
[16] = Half life in fasted Beagle dog at 10 mg/kg, po measured for 24 hrs by LC-MS analysis; format: ADME, organism-based, Canis lupus familiaris; settings: in vivo
[17] = Cmax in fasted Beagle dog at 10 mg/kg, po measured for 24 hrs by LC-MS analysis; format: ADME, organism-based, Canis lupus familiaris; settings: in vivo
[18] = AUC in fasted Beagle dog at 10 mg/kg, po measured for 24 hrs by LC-MS analysis; format: ADME, organism-based, Canis lupus familiaris; settings: in vivo
[19] = Oral bioavailability in fasted Beagle dog at 10 mg/kg measured for 24 hrs by LC-MS analysis; format: ADME, organism-based, Canis lupus familiaris; settings: in vivo
[20] = Kinetic solubility of compound at pH 2; format: physicochemical; settings: buffer, read-out: Kinetic_solubility
[21] = Kinetic solubility of compound at pH 6.5; format: physicochemical; settings: buffer, read-out: Kinetic_solubility
[22] = Kinetic solubility of compound at pH 7.4; format: physicochemical; settings: buffer, read-out: Kinetic_solubility
[23] = Thermodynamic solubility of compound at pH 2; format: physicochemical; settings: buffer, read-out: Therm_solubility
[24] = Thermodynamic solubility of compound at pH 6.5; format: physicochemical; settings: buffer, read-out: Therm_solubility
[25] = Thermodynamic solubility of compound at pH 7.4; format: physicochemical; settings: buffer, read-out: Therm_solubility
[26] = Apparent permeability across apical to basolateral side in MDCKII-MDR1 cells incubated for 2 hrs by LC-MS analysis; format: ADME, cell-based, Canis lupus familiaris; settings: dog, MDCK-MDR1
[27] = Apparent permeability across basolateral to apical side in MDCKII-MDR1 cells incubated for 2 hrs by LC-MS analysis; format: ADME, cell-based, Canis lupus familiaris; settings: dog, MDCK-MDR1
[28] = Passive permeability in MDCKII-MDR1 cells incubated for 2 hrs by LC-MS analysis; format: ADME, cell-based, Canis lupus familiaris; settings: dog, MDCK-MDR1, read-out: permeability
[29] = Plasma protein binding in human at 2 uM incubated for 1 hr by LC/MS analysis; format: ADME, cell-free; settings: read-out: PPB (converted)
[30] = Plasma protein binding in monkey at 2 uM incubated for 1 hr by LC/MS analysis; format: ADME, cell-free, Macaca mulatta; settings: rhesus monkey, read-out: PPB (converted)
[31] = Plasma protein binding in dog at 2 uM incubated for 1 hr by LC/MS analysis; format: ADME, cell-free, Canis lupus familiaris; settings: read-out: PPB (converted)
[32] = Plasma protein binding in rat at 2 uM incubated for 1 hr by LC/MS analysis; format: ADME, cell-free; settings: read-out: PPB (converted)
[33] = Plasma protein binding in mouse at 2 uM incubated for 1 hr by LC/MS analysis; format: ADME, cell-free; settings: read-out: PPB (converted)
[34] = Metabolic stability in human liver microsomes assessed as intrinsic clearance preincubated for 5 mins followed by NADPH addition measured for 1 hr by LC-MS analysis; format: ADME, Microsome; settings: time 65 min, read-out: CLH
[35] = Metabolic stability in monkey liver microsomes assessed as intrinsic clearance preincubated for 5 mins followed by NADPH addition measured for 1 hr by LC-MS analysis; format: ADME, Macaca mulatta, Microsome; settings: rhesus monkey, time 65 min, read-out: CLH
[36] = Metabolic stability in dog liver microsomes assessed as intrinsic clearance preincubated for 5 mins followed by NADPH addition measured for 1 hr by LC-MS analysis; format: ADME, Canis lupus familiaris, Microsome; settings: time 65 min, read-out: CLH
[37] = Metabolic stability in rat liver microsomes assessed as intrinsic clearance preincubated for 5 mins followed by NADPH addition measured for 1 hr by LC-MS analysis; format: ADME, Microsome; settings: time 65 min, read-out: CLH
[38] = Metabolic stability in mouse liver microsomes assessed as intrinsic clearance preincubated for 5 mins followed by NADPH addition measured for 1 hr by LC-MS analysis; format: ADME, Microsome; settings: time 65 min, read-out: CLH
Cytochrome P450 1A2 = molecular target: T1, Cytochrome P450 1A2 (Homo sapiens, UniProt P05177); test: Inhibition of CYP1A2 in human liver microsomes using phenacetin as substrate preincubated for 10 mins followed by substrate addition measured for 30 mins by LC-MS analysis; format: ADME, Microsome
T1 sequence (P05177 whole entry): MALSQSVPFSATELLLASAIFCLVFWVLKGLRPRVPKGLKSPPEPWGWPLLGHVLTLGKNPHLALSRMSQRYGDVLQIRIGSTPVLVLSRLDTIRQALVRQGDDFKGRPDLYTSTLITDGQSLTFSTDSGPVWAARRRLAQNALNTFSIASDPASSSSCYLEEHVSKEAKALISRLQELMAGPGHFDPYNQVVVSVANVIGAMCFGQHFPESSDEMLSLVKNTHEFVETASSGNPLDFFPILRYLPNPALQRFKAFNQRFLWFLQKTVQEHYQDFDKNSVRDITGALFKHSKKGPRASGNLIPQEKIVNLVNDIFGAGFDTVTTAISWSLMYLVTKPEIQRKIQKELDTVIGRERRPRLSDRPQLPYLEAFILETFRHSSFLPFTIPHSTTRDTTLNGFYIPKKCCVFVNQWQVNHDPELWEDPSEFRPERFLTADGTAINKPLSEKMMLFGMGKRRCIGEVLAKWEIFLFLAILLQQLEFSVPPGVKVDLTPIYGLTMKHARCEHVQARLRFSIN

Cytochrome P450 2C9 = Cytochrome P450 2C9 (Homo sapiens, UniProt P11712); test: Inhibition of CYP2C9 in human liver microsomes using diclofenac as substrate preincubated for 10 mins followed by substrate addition measured for 30 mins by LC-MS analysis; format: ADME, Microsome
Cytochrome P450 2C19 = Cytochrome P450 2C19 (Homo sapiens, UniProt P33261); test: Inhibition of CYP2C19 in human liver microsomes using mephenytoin as substrate preincubated for 10 mins followed by substrate addition measured for 30 mins by LC-MS analysis; format: ADME, Microsome
Cytochrome P450 2D6 = Cytochrome P450 2D6 (Homo sapiens, UniProt P10635); test: Inhibition of CYP2D6 in human liver microsomes using dextromethorphan as substrate preincubated for 10 mins followed by substrate addition measured for 30 mins by LC-MS analysis; format: ADME, Microsome
Cytochrome P450 3A4 = Cytochrome P450 3A4 (Homo sapiens, UniProt P08684); test: Inhibition of CYP3A4 in human liver microsomes using midazolam as substrate preincubated for 10 mins followed by substrate addition measured for 30 mins by LC-MS analysis; format: ADME, Microsome
Chain of Cytochrome P450 3A4 (P08684 whole entry): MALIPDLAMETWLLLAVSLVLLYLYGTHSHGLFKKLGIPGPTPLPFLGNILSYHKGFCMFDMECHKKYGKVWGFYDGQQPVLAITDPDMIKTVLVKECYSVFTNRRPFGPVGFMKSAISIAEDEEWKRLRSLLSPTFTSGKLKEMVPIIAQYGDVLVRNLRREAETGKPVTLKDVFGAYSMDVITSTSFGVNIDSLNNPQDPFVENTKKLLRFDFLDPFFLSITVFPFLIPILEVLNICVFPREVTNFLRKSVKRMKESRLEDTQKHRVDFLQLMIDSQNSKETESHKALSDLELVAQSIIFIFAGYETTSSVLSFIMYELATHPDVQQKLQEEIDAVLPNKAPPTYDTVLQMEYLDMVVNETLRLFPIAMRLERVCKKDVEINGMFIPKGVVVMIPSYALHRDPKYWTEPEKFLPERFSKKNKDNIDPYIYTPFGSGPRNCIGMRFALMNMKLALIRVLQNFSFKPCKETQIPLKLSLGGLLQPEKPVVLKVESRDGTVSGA

Chain of Cytochrome P450 2D6 (P10635 whole entry): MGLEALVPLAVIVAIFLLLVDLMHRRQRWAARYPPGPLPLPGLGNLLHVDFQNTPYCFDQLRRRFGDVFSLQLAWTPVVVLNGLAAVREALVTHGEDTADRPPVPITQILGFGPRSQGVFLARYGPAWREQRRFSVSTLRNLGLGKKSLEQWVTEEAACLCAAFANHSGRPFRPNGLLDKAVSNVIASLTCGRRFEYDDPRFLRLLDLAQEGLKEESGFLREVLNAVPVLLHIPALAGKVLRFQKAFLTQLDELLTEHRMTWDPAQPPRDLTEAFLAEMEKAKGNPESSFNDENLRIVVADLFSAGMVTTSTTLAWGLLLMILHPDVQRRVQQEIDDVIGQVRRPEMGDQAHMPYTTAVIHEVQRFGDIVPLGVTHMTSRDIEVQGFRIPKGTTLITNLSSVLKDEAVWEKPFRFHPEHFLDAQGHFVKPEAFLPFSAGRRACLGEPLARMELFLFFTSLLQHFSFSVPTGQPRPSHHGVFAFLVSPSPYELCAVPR
Chain of Cytochrome P450 2C9 (P11712 whole entry): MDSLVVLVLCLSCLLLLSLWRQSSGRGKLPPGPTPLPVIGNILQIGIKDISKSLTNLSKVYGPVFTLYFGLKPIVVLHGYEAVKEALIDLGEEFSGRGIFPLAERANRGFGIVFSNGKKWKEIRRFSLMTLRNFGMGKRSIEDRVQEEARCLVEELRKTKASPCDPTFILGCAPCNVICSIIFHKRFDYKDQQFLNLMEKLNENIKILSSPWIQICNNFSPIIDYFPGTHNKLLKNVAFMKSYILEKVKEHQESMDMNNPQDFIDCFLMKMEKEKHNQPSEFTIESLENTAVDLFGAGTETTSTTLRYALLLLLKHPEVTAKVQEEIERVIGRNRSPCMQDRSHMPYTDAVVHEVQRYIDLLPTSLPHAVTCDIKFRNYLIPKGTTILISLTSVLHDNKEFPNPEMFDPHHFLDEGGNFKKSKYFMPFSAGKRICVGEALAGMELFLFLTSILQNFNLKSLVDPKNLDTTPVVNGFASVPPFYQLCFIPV
Chain of Cytochrome P450 2C19 (P33261 whole entry): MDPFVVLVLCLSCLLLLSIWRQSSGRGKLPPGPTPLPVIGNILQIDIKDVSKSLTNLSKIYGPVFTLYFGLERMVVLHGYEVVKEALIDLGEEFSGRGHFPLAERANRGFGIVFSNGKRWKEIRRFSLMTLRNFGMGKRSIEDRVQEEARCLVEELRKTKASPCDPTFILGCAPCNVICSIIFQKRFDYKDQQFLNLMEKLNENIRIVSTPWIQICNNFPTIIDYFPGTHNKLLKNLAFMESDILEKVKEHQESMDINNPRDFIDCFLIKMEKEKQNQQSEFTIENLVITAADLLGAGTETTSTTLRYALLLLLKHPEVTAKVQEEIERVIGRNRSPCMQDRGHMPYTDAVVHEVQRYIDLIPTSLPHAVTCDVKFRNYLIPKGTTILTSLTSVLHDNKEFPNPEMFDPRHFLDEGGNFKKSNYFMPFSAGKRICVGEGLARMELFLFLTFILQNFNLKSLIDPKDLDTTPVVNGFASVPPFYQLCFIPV

C[C@@H](COCCC(=O)N1CCN(c2ncc(C(F)(F)F)cn2)CC1)Nc1cn[nH]c(=O)c1C(F)(F)F [ATAMPARIB]
clearance [1]: 72.6 mL/min/kg | half-life [2]: 0.2 h | AUC at 24 h [3]: 470 ng·h/mL | Vd [4]: 0.714 L/kg | Tmax [5]: 0.25 h | t1/2 [6]: 2.7 h | Cmax [7]: 995 ng/mL | AUC [8]: 617 ng·h/mL | bioavailability [9]: 26.2% | inhibition in vivo at 30 mg/kg (NCI-H1373): 62.7% | Activity [10]: Non-Toxic | Activity [11]: Non-Toxic | half-life [12]: 1 h | AUC [13]: 4694 ng·h/mL | Vd [14]: 1.7 L/kg | Tmax [15]: 1.33 h | t1/2 [16]: 2.5 h | Cmax [17]: 1800 ng/mL | AUC [18]: 5508 ng·h/mL | bioavailability [19]: 23.4% | solubility kinetic [20]: 158 µM (≈ 82.7 µg/mL) | solubility kinetic [21]: 151 µM (≈ 79 µg/mL) | solubility kinetic [22]: 158 µM (≈ 82.7 µg/mL) | solubility thermodynamic [23]: 68.9 µg/mL (≈ 132 µM) | solubility thermodynamic [24]: 54.6 µg/mL (≈ 104 µM) | solubility thermodynamic [25]: 52.8 µg/mL (≈ 101 µM) | Papp A→B at 2 h [26]: 0.28 ×10⁻⁶ cm/s | Papp B→A at 2 h [27]: 3.78 ×10⁻⁶ cm/s | Papp at 2 h [28]: 1.03 ×10⁻⁶ cm/s | fraction unbound at 1 h, 2 µM [29]: 0.194 | fraction unbound at 1 h, 2 µM [30]: 0.347 | fraction unbound at 1 h, 2 µM [31]: 0.131 | fraction unbound at 1 h, 2 µM [32]: 0.233 | fraction unbound at 1 h, 2 µM [33]: 0.123 | CLint scaled [34]: 23.2 mL/min/kg | CLint scaled [35]: 94.8 mL/min/kg | CLint scaled [36]: 17.1 mL/min/kg | CLint scaled [37]: 110 mL/min/kg | CLint scaled [38]: 345 mL/min/kg | IC50 (Cytochrome P450 1A2): > 30 µM | IC50 (Cytochrome P450 2C9): 3.13 µM | IC50 (Cytochrome P450 2C19): > 30 µM | IC50 (Cytochrome P450 2D6): > 30 µM | IC50 (Cytochrome P450 3A4): > 30 µM
